Laboratory results as given in ChEMBL document CHEMBL1201862, “PubChem BioAssay data set” (2004).
Calls of active or inactive are those of the source.

Tests used:
Large T antigen = Large T antigen (Simian virus 40, UniProt P03070); assay type: functional, Betapolyomavirus macacae;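 also: Confirmatory-stage PubChem screen for compounds that inhibit SV40 T antigen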
[1] = control 3'UTR Renilla luciferase suppression, dose response, counter-screen for Shn3 inhibitor project, cell-based, Clone20-Shn3RL, cherry-picked (AID 624133); assay type: functional
Beta Lactamase = Beta Lactamase (Pseudomonas aeruginosa, UniProt Q932Y6); test: beta-lactamase reporter inhibitor potency, dose response, artefact control for TLR9-MyD88 binding inhibitor project, BLA reporter cells, FRET fluorescence (AID 588341); assay type: cell-based;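 also: cell based assay in CHO-K1 cells stably expressing beta-lactamase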
[2] = growth suppression of beta-catenin-knockout colon cells, dose response, cell-based, HCT116, human colon tumor (AID 1045); assay type: functional;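 also: HCT116 colon tumor cells with beta catenin knocked out; cells exposed to compound for 60 hours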
[3] = system: Streptococcus sp. 'group A'; test: growth inhibition of control SK(-) GAS strain, dose response, counter-screen for streptokinase expression inhibitor project, luminescence, kanamycin, BacTiterGlo, confirmation (AID 1900); assay type: functional, organism-based
[4] = growth suppression of PTEN-null colon cells, dose response, cell-based, HCT116 PTEN knockout (AID 1047); assay type: functional;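 also: HCT116 colon tumor cells with PTEN knocked out; cells exposed to compound for 60 hours before readout; potency for loss of cell viability measured by luminescence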
[5] = HepG2 cell cytotoxicity, dose response, cytotoxicity control for Shn3 inhibitor project, CellTiter-Glo, cherry-picked (AID 624134); assay type: functional, cell-based
[6] = biological target: Glucose-6-phosphate 1-dehydrogenase (Homo sapiens, UniProt P11413); test: human G6PD enzyme inhibitors, dose response, selectivity assay for P. falciparum G6PD inhibitor project, biochemical, fluorescence (AID 504792); assay type: functional
Streptococcus = test: Group A Streptococcus viability loss, dose response, counter-screen for streptokinase expression inhibitor project, luminescence, BacTiterGlo (AID 1915); assay type: functional, organism-based;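 also: potency for reduction of bacterial viability or growth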
Streptokinase A = biological target: T1, Streptokinase A (Streptococcus pyogenes serotype M1, UniProt P10520); test: S. pyogenes streptokinase expression inhibitors, potency, dose response, plasminogen activation absorbance, OD405 (AID 1914); assay type: functional, Streptococcus pyogenes M1 GAS;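 also: secreted streptokinase activity via plasminogen activation per viability signal from cell pellet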
T1 sequence (P10520 whole entry): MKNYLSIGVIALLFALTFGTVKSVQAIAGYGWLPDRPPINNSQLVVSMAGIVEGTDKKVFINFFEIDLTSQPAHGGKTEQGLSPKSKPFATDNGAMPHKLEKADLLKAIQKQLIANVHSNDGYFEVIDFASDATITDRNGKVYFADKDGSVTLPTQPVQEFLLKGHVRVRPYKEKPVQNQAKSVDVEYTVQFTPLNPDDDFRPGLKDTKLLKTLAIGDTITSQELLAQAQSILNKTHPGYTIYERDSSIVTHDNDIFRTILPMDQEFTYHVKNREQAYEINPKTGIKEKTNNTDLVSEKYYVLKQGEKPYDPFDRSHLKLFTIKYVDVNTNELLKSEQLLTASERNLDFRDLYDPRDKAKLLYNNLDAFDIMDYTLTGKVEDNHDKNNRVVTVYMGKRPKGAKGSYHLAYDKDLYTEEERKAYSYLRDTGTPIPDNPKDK

Genome polyprotein = Genome polyprotein (dengue virus type 2, UniProt P29990); test: Dengue-2 NS5 methyltransferase inhibitors, primary screen, biochemical, confirmation dose response (AID 588689); assay type: functional
Chain of Genome polyprotein (P29990 2492-3391 limits assumed): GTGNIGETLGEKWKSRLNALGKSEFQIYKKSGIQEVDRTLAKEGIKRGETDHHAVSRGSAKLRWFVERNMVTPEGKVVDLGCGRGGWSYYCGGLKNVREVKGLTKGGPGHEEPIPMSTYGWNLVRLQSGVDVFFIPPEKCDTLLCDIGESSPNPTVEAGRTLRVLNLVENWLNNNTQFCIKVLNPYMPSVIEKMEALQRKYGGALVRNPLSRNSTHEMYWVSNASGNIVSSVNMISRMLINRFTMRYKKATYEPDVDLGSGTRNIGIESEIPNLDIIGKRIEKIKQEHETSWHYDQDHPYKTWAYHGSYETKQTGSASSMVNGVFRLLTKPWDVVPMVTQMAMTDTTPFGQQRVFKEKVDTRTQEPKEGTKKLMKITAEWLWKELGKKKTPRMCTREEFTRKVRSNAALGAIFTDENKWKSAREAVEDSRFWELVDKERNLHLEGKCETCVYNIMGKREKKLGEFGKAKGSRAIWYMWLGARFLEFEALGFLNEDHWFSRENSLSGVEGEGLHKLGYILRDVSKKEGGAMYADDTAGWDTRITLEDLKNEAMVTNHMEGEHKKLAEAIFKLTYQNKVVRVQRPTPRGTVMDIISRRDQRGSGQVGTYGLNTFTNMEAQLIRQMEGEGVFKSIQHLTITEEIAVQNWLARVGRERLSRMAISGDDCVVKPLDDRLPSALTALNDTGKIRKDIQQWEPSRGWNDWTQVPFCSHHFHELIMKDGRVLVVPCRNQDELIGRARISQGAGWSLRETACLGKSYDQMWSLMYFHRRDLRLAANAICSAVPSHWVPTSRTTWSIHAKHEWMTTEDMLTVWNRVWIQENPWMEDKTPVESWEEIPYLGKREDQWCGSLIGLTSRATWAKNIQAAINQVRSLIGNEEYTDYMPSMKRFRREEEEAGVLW

[7] = biological target: T2, Replicative DNA helicase DnaB (Mycobacterium tuberculosis, UniProt P9WMR3); test: DnaB intein splicing inhibitors, dose response, biochemical, cell-free fluorescence (AID 449749); assay type: functional
T2 sequence (P9WMR3 whole entry): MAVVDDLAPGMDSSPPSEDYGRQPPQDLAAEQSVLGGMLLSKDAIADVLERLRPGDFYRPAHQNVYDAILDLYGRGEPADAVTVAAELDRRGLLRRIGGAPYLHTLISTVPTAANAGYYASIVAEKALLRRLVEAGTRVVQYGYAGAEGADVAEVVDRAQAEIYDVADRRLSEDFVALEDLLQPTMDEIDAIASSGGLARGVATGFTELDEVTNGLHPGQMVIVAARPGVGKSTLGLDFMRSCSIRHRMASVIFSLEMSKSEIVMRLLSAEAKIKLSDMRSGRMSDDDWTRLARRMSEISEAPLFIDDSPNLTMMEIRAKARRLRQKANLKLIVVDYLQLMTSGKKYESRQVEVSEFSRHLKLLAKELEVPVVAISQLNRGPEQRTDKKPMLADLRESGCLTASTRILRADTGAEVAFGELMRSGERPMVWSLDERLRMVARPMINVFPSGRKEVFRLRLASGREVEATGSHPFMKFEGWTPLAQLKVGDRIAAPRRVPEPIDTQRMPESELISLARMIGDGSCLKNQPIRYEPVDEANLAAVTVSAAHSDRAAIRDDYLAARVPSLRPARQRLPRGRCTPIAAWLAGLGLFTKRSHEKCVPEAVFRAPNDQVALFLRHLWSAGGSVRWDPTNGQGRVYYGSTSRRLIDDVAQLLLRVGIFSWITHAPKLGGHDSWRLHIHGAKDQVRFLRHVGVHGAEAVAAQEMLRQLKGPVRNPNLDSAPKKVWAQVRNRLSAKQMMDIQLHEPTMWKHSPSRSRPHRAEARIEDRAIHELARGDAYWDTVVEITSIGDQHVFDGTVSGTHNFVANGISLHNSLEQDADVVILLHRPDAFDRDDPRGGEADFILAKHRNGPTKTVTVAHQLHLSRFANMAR

[8] = Shn3 3'UTR reporter inhibitors, dose response, cell-based, Clone20 osteoblasts, firefly luciferase, cherry-picked (AID 624132); assay type: functional;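 also: firefly luciferase luminescence from reporter carrying the Shn3 3'UTR in osteoblasts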
[9] = biological target: Induced myeloid leukemia cell differentiation protein Mcl-1 (Homo sapiens, UniProt Q07820); assay type: functional
Chain of Induced myeloid leukemia cell differentiation protein Mcl-1 (Q07820 whole entry): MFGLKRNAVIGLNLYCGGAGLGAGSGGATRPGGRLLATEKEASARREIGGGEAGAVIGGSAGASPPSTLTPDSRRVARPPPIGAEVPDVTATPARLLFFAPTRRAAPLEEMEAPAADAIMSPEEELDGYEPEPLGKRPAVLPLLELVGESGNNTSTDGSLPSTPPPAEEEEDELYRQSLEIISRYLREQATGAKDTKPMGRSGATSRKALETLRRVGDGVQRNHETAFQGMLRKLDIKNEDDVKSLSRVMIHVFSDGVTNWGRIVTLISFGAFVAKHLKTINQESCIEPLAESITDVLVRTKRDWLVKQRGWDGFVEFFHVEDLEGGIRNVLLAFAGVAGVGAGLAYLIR

[10] = THP-1 cell cytotoxicity, dose response, cytotoxicity control for Vif-APOBEC3G degradation inhibitor project, THP-1 cells (AID 1117359); assay type: functional; conditions: Human immunodeficiency virus 1, THP-1
CHO = test: cytotoxicity in TLR9-MyD88 CHO cells, dose response, cytotoxicity control for TLR9-MyD88 binding inhibitor project, cell-based, luminescence (AID 588339); assay type: functional, hamster; conditions: Cricetulus griseus;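 also: CHO cells stably coexpressing TLR9 and MyD88 fusions from primary screen; compound exposure lasted 48 hours before viability readout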
Protein RecA = biological target: T3, Protein RecA (Mycobacterium tuberculosis, UniProt P9WHJ3); test: Fluorescence Cell-Free Homogeneous Dose Retest to Identify Inhibitors of RecA-Intein Splicing Activity. [Related pubchem assays (depositor defined):AID2097, AID2223, AID489010, AID492950]; assay type: functional
T3 sequence (P9WHJ3 whole entry): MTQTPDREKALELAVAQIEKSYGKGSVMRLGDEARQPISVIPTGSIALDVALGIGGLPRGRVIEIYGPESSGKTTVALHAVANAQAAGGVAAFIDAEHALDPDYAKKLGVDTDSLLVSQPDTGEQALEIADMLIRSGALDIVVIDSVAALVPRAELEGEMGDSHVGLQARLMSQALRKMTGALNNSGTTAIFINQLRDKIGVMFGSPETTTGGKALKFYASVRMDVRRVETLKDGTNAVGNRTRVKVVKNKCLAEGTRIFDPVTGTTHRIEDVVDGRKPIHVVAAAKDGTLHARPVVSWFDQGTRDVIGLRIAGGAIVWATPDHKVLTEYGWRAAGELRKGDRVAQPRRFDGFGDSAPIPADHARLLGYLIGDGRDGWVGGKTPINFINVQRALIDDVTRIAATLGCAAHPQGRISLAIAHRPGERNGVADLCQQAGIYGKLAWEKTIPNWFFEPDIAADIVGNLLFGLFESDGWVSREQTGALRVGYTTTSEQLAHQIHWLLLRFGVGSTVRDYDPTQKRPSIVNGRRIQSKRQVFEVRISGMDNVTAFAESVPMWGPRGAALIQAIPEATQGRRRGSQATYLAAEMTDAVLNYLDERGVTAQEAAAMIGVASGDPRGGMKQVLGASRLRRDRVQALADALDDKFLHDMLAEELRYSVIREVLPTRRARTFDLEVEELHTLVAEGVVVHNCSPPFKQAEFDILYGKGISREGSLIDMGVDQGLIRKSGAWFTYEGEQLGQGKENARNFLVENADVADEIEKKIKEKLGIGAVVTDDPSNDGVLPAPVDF

Beta-galactosidase = Beta-galactosidase (Escherichia coli, UniProt Q8VNN2); test: PubChem AID 485352; assay type: functional
Chain of Beta-galactosidase (Q8VNN2 whole entry): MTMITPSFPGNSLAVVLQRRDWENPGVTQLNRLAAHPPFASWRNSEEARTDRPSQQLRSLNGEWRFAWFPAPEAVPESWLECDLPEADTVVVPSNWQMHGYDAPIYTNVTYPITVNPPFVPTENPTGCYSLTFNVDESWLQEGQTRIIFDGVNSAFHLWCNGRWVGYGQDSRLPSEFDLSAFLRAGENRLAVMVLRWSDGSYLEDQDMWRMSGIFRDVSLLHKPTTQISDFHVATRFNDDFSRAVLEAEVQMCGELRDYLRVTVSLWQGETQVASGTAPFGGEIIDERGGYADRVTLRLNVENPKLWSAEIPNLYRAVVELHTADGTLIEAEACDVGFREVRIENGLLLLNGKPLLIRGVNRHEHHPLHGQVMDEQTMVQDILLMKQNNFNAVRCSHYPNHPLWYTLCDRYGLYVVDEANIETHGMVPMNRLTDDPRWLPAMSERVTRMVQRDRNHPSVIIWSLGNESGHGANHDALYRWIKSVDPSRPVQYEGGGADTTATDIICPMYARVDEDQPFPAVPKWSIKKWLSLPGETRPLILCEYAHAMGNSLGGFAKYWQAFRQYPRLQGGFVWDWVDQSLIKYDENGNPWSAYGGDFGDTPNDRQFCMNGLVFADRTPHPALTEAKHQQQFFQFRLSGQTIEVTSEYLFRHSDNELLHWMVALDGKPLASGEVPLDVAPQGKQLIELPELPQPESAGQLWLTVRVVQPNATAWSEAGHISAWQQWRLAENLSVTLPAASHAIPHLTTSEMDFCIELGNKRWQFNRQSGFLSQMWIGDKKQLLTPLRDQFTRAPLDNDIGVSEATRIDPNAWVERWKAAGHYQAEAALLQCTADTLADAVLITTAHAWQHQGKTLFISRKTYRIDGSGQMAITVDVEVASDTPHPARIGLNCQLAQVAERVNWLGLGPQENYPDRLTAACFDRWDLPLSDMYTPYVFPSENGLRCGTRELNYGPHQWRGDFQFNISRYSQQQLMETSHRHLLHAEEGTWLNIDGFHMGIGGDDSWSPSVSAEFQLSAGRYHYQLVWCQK

[11] = biological target: T4, Type-1 angiotensin II receptor (Homo sapiens, UniProt P30556); test: AT1 receptor antagonists, dose response, selectivity assay for APJ receptor antagonist project, cell-based, uHTS hits (AID 463214); assay type: functional;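 also: antagonist potency against angiotensin II stimulated AT1 response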
T4 sequence (P30556 whole entry): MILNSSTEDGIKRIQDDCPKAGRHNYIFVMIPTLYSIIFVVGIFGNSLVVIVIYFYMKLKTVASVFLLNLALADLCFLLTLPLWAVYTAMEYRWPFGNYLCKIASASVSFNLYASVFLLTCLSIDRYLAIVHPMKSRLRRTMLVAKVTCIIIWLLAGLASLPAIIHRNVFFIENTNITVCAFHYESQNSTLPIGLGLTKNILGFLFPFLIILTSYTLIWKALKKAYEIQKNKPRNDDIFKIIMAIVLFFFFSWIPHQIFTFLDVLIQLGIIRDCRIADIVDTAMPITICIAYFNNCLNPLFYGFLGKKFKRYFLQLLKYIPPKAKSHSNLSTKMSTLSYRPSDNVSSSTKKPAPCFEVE

Cytochrome P450 2C9 = Cytochrome P450 2C9 (Homo sapiens, UniProt P11712)
Chain of Cytochrome P450 2C9 (P11712 whole entry): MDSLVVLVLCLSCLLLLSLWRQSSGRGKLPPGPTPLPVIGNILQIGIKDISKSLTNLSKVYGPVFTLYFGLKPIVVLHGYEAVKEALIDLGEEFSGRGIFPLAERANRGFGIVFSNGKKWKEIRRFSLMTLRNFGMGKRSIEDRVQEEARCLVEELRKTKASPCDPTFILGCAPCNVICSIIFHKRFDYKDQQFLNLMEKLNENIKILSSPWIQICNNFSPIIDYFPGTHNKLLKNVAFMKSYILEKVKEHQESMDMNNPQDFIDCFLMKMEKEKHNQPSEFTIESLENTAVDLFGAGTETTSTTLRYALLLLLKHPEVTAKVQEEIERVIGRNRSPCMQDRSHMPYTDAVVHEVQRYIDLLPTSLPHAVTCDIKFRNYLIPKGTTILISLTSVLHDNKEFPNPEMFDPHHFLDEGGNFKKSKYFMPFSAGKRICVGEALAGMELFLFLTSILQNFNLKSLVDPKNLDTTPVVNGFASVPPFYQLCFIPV

Vero = Vero cell cytotoxicity, cytotoxicity control for flavivirus capping enzyme inhibitors (AID 588742); assay type: functional; conditions: Chlorocebus sabaeus
[12] = Vero cell cytotoxicity, dose response, cytotoxicity control for Vif-APOBEC3G degradation inhibitor project, Vero cells (AID 1117358); assay type: functional; conditions: Human immunodeficiency virus 1, Vero
SUMO-activating enzyme [13] = biological target: T5, SUMO-activating enzyme (Homo sapiens, UniProt Q9UBT2); test: SUMOylation inhibitor hit validation, confirmation, SUMOylation inhibitor project, biochemical, AlphaScreen (AID 2018); assay type: functional
T5 sequence (Q9UBE0 whole entry): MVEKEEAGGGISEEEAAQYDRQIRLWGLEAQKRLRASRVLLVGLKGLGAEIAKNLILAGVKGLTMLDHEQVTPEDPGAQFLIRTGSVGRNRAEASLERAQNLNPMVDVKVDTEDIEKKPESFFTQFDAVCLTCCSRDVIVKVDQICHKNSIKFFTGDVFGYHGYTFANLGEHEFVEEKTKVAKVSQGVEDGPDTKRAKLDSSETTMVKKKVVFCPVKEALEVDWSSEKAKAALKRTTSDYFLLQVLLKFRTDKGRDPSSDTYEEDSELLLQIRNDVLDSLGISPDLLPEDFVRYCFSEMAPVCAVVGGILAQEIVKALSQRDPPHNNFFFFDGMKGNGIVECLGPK
T5 sequence (Q9UBT2 whole entry): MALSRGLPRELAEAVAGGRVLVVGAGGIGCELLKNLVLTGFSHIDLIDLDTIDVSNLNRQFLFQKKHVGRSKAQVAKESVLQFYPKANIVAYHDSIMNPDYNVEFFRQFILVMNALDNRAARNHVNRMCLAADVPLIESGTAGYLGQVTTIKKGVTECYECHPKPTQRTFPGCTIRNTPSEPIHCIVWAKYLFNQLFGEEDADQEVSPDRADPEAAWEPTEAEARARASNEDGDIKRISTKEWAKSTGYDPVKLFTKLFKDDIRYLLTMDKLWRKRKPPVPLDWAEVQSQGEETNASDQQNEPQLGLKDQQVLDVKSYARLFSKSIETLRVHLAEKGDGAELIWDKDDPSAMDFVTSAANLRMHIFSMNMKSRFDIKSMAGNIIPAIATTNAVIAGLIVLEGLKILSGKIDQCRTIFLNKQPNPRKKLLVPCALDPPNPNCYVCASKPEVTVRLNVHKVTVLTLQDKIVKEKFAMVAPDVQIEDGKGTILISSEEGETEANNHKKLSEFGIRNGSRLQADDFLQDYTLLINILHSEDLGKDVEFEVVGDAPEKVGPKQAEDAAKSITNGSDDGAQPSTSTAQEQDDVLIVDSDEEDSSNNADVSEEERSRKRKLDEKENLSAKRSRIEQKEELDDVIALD

Protein Tat = Protein Tat (Human immunodeficiency virus type 1 group M subtype B (isolate HXB2)(HIV-1), UniProt P04608); assay type: functional;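 also: tat binding to TAR RNA read out by fluorescence polarization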
SUMO-activating enzyme [14] = biological target: T5, SUMO-activating enzyme; test: inhibitors of in vitro SUMOylation cascade, primary screen, biochemical, HTRF, uHTS (AID 2006); assay type: protein-complex assay
Estrogen receptor beta [15] = biological target: T6, Estrogen receptor beta (Homo sapiens, UniProt Q92731);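 also: recombinant ER-beta bound to coactivator SRC1 peptide in presence of estradiol agonist; inhibitors block coactivator peptide binding and lower the FRET signal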
T6 sequence (Q92731 whole entry): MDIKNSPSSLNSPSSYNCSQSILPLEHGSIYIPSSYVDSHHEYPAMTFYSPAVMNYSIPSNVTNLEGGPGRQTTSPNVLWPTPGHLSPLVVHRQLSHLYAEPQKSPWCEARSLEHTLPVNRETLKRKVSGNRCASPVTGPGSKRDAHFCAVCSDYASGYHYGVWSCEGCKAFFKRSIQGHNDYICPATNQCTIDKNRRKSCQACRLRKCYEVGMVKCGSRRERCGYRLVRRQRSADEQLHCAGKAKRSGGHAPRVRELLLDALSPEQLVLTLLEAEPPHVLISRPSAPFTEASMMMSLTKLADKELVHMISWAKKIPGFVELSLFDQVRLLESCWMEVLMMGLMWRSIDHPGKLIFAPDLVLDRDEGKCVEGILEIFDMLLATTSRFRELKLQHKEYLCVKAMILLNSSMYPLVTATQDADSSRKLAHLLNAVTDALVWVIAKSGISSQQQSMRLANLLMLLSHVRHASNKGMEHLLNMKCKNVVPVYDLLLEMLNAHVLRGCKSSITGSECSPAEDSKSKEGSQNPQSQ

Estrogen receptor beta [16] = biological target: T6, Estrogen receptor beta; test: ERβ–SRC-3 coactivator interaction inhibitors, confirmation, orthogonal assay, biochemical, ELISA, streptavidin-HRP readout (AID 1060)
BJ [17] = test: cytotoxicity toward BJ-TERT-LT-ST fibroblasts, dose response, cell-based, RAS-independent, luminescence (AID 1935); assay type: functional; conditions: Homo sapiens;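 also: BJ fibroblasts immortalized with TERT plus LT and ST oncogenes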
BJ [18] = test: cytotoxicity toward BJ-TERT fibroblasts, dose response, cell-based, RAS-independent, luminescence (AID 1933); assay type: functional; conditions: Homo sapiens
[19] = cytotoxicity toward DRD oncogenic fibroblasts, dose response, cell-based, non-viral oncogenic, luminescence (AID 1934); assay type: functional; conditions: Homo sapiens
BJ [20] = test: cells; assay type: functional, cell-based; conditions: Homo sapiens

Chain of Large T antigen (P03070 whole entry): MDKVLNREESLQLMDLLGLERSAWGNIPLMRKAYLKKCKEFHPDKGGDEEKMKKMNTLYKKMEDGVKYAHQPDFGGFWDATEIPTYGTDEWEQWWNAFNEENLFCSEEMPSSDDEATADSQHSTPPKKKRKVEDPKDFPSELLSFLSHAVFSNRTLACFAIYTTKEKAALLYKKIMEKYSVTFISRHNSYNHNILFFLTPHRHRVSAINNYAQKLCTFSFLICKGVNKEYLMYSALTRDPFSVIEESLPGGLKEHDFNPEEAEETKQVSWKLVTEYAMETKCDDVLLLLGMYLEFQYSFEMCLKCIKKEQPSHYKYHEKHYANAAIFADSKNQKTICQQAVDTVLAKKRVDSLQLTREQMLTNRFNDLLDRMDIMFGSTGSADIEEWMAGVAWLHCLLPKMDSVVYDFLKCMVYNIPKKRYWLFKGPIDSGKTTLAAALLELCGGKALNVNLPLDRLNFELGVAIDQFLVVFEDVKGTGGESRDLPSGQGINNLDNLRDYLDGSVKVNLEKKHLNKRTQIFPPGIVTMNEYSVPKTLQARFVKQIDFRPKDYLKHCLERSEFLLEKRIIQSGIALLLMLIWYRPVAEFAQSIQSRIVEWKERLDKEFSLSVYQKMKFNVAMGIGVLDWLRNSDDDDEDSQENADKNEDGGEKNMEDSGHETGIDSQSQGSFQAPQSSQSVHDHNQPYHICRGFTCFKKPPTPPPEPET

SMILES: O=[N+]([O-])c1c(NCCO)cc(Sc2nc3ccccc3s2)c2nonc12
- IC50 (Large T antigen): 21.2 µM (active)
- AC50 [1]: 10.7 µM (active)
- IC50 (Beta Lactamase): 9.17 µM (active)
- EC50 [2]: 10.7 µM (active)
- EC50 [3]: 2.73 µM (active)
- EC50 [4]: 11.1 µM (active)
- AC50 [5]: 32.1 µM (active)
- IC50 [6]: > 80 µM (inactive)
- EC50 (Streptococcus): 3.39 µM (active)
- EC50 (Streptokinase A): > 150 µM (not active)
- IC50 (Genome polyprotein): 75.8 µM (active)
- AC50 [7]: 1.05 µM (active)
- AC50 [8]: 1.64 µM (active)
- IC50 [9]: 11.1 µM (not active)
- CC50 [10]: 22.9 µM (active)
- IC50 (CHO): 1.94 µM (active)
- EC50 (Protein RecA): 0.722 µM (active)
- EC50 (Beta-galactosidase): > 40 µM (inactive)
- IC50 [11]: 1.9 µM (active)
- AC50 (Cytochrome P450 2C9): 0.631 µM (inconclusive)
- CC50 (Vero): 32.9 µM (active)
- CC50 [12]: > 40 µM (active)

SMILES: Cc1ccsc1/C=N/c1ccc(O)cc1
- IC50 (Large T antigen): 31.2 µM (active)
- EC50 (Protein RecA): > 380 µM (inconclusive)
- IC50 (SUMO-activating enzyme [13]): 2.36 µM (active)
- IC50 (Protein Tat): 30.5 µM (inconclusive)
- IC50 (SUMO-activating enzyme [14]): 9.41 µM (active)

SMILES: c1ccc(Cc2nnc3sc(-c4ccco4)nn23)cc1
- IC50 (Estrogen receptor beta [15]): 11.4 µM (active)
- IC50 (Estrogen receptor beta [16]): 15.2 µM (not active)

SMILES: CCCOc1ccccc1C1CC(=O)NC2=C1C(=O)CCC2 (centres undefined)
- EC50 (BJ [17]): 17.2 µM (active)
- EC50 (BJ [18]): 16 µM (active)
- EC50 [19]: 32.7 µM (active)
- EC50 (BJ [20]): 44.4 µM (active)
- CC50 [12]: > 40 µM (active)
